Tests used:
[1] = test system: C. neoformans strain 24067; experiment: Survival of BALB/c mice infected with C. neoformans; assay type: in vivo; conditions: for survival advantage: oral
Description: (§1) Cryptococcus neoformans cells were collected as described above. BALB/c mice (National Cancer Institute (NCI), Bethesda, Md.), 6-8 weeks old, were injected intravenously (i.v.) by the tail veins with 1×10^6 organisms. […] In experiment A, uninfected control mice were injected with glyphosate at the same time intervals. […] Forty-four days after infection, the A/J Cr mice were killed, and the lungs were isolated and homogenized in 5 ml of PBS. 100 μl of 1/100 and 1/1000 dilutions of the homogenates in PBS were then plated on Sab agar. Colony-forming units (CFUs) were determined after incubation of the plates at 30° C. for 48 h (1 colony=1 CFU). […] Control mice were injected with PBS instead of glyphosate.
Data analysis was performed using SPSS version 8. Student's T-test and Kaplan-Meier survival analysis were utilized.

[2] = test system: autopolymerization of L-dopa to melanin; experiment: Autopolymerization of L-dopa to melanin (spectrophotometry)
Description: In solution, L-dopa slowly autopolymerizes to form melanin [20]. […] The samples were left on the benchtop at room temperature. An Ultraspec 2000 spectrophotometer (Pharmacia Biotech, Cambridge, England) was used to assess absorption at 270λ after 3 days and 20 days. […] A freshly-prepared solution of the same concentrations was tested for comparison.

[3] = test system: melanization in C. neoformans; experiment: Effect of sub-inhibitory glyphosate on melanization of C. neoformans cultures with L-dopa; assay type: cell-based, Cryptococcus neoformans; conditions: 1 mM L-dopa; for Melanization: control without glyphosate day 7
Description: Positive melanin controls were cultures containing L-dopa without glyphosate; negative controls were cultures lacking both L-dopa and glyphosate. All cultures were grown in duplicate. The cultures were examined visually for melanization. The growth rate of the cells in each culture was determined by counting, with a hemocytometer, the number of cells per ml at various times after the initiation of the culture.

C. neoformans = experiment: Lung CFUs in A/J Cr mice infected with C. neoformans; assay type: in vivo; conditions: 1 mg glyphosate i.p. at 24, 48, 72 h, 44 days after infection, n=13, controls 9.63±0.21, p=0.004
Description: as §1

[4] = test system: Cryptococcus neoformans serotype D strain 24067; experiment: Glyphosate inhibition of C. neoformans growth (turbidity, 96-well plates); assay type: cell-based; conditions: after 72 h of incubation, 30° C., Sab, visual turbidity
Description: Cryptococcus neoformans serotype D strain 24067 was obtained from the American Type Culture Collection (Rockville, Md.), and grown overnight at 30° C. with shaking in Sabouraud dextrose media (Sab) obtained from Difco Laboratories (Detroit, Mich.). Cells were collected and washed three times with phosphate-buffered saline (PBS: 0.137 M NaCl and 0.003 M sodium phosphate; pH 7.4). A suspension of 250 organisms per 1 ml of Sab was made. Glyphosate was obtained from the Sigma Chemical Co. (St. Louis, Mo.). […] Each concentration was tested in triplicate. The plates were incubated at 30° C., and growth was assayed visually for turbidity after 72 h.

`O=C(O)CNCP(=O)(O)O` [glyphosate, N-phosphonomethylglycine] was tested, and the Mean survival ([1]; 0.75 mg/day glyphosate i.p. protocol, control 20.4±1.31 days, p=0.049) was 26.8 ± 3.55 days, the “Mean survival time and standard deviation by Kaplan-Meier analysis” value ([1]; 1.5 mg/day glyphosate i.p. for three days, control 15.9±1.57 days, p=0.001) was 25.7 ± 2.36 days and the survival advantage ([1]; ad lib water containing 2 mg/ml glyphosate) was “no survival advantage”. The survival advantage ([1]; ad lib water containing 10 mg/ml glyphosate) was “no survival advantage”, the absorption value ([2]; 0.12 μg/ml glyphosate, 1 mM L-dopa, day 3, 270λ, control without compound 0.425) was 0.359 and the “concentration of glyphosate at which an absorption signal could be detected” value ([2]; day 3, 1 mM L-dopa, room temperature, 270λ) was 39 µg/mL. The “concentrations of glyphosate that continued to inhibit melanin formation” value ([2]; day 20, 1 mM L-dopa, room temperature) was no less than 31.3 µg/mL, the “Melanization” value ([3]; 62.5 μg/ml glyphosate) was 10 days and the “Melanization” value ([3]; 125 μg/ml glyphosate) was 13 days. The “Melanization” value ([3]; 250 μg/ml glyphosate) was 15 days, the “melanization state of culture” value ([3]; grown 10 days in minimal media, 62.5 μg/ml glyphosate) was “heavily melanized” and the “Log10 CFUs from lung homogenates” value (C. neoformans) was 8.62±1.12. For the same compound, the “concentrations of glyphosate at which growth inhibition was observed” value [4] was greater than 250 µg/mL and the “concentrations of glyphosate at which no growth inhibition was observed” value [4] was less than 250 µg/mL.
